{"source": "paper PMC4992173", "about": "“Divergent synthesis and identification of the cellular targets of deoxyelephantopins” (Nature Communications, 2016)", "tested_on": "Caco-2 cells", "test": "In situ global proteomics profiling of Caco-2 cells (LC-MS/MS, LFQ)", "format": "cell-based, human", "details": "for Log2 20 µM DEP/DMSO: LFQ", "experimental": "Figure 7 Identification of PPARγ as target of deoxyelephantopin and screening of DEP derivatives as PPARγ antagonists. (a) Quantification of endogenous PPARγ enriched from Caco-2 cells using 10 μM 24c following in situ treatment with DEP (20 μM) or DMSO (normalized LFQ values±s.d. are shown; n=6). (b) Changes in expression levels of five PPARγ-dependent proteins following 24 h treatment of Caco-2 cells with DMSO, rosiglitazone (10 μM), T0070907 (50 μM) or DEP (20 μM; LFQ ratios±s.d. are shown; n=3). **P<0.005 and ***P<0.0005 by two-sided Student's t-test. (c) Gel-based competitive screening of DEP and analogues as PPARγ antagonists against recombinant human enzyme (top). hPPARγ was treated with each compound (20 μM) for 1 h followed by treatment with 24c-Cy3 (10 μM) as probe. Quantification of fluorescence intensity in the competitive screening for PPARγ antagonists (bottom; values±s.d. are shown; n=3).\nCaco-2 cells were treated with DMSO, PPARγ agonist rosiglitazone, antagonist T0070907 or DEP for 24 h, the cells were collected and the proteomes were comparatively analysed by LC–MS/MS. […] Furthermore, the list of 43 dysregulated proteins was analysed and classified using the GOrilla pathway analysis tool (Supplementary Fig. 15). […]\nIn situ global proteomics profiling using LC-MS/MS. Caco- ’ cells/mL) in a 6-well plate, allowed to grow to confluence and to differentiate for 28 days. The wells were washed one time with PBS and treated with either DMSO, 10 µM rosiglitazone, 50 µM T0070907 or 20 µM DEP for 24 hours. Cells were washed two times with PBS and lysates were prepared. Samples (30 µg) were denatured with 6 M urea in 50 mM NH4HCO3, reduced […]\ndark. Samples were diluted to 2 M urea with 50 mM NH4HCO3, and digested with trypsin ([…] for 12 hours at 37 °C. Samples were acidified to a final concentration of 5% acetic acid, desalted over a self-packed C18 spin column and […]\ndried. […]\nLC-MS/MS analysis. Peptides were resuspended in water with 0.1% formic acid (FA) and analyzed using Proxeon EASY-nLC 1000 nano-UHPLC coupled to QExactive Plus Quadrupole-Orbitrap mass spectrometer (Thermo Scientific). The chromatography column […]\nH2O (Buffer A) and 0.1% FA in MeCN (Buffer B). Peptides were eluted into the mass spectrometer at a flow rate of 300 nL/min. over a 240 min. linear gradient (3-35% Buffer B) at 50 °C. Data was acquired in data-dependent mode (top- N = ’ […]\nand isotope exclusion was enabled.\nMaxQuant analysis. The MS data was analyzed with MaxQuant (V1.5.2.8) and searched against the human proteome (Uniprot, 89,649 entries) and a common list of contaminants (included in MaxQuant). The first peptide search tolerance was set to 20 ppm, 10 ppm was used for the main peptide search and fragment mass tolerance was set to 0.02 Da. The false discovery rate for peptides, proteins and sites identification was set to 1%. The minimum peptide length was set to 6 amino acids and peptide re-quantification, label-free quantification (MaxLFQ) and “ ” were enabled. The minimal number of peptides per protein was set to two. Oxidized methionines and N-terminal acetylation were searched as variable modifications and carbamidomethylation of cysteines was searched as a fixed modification. For SILAC experiments 13C6 L-lysine and 13C6 15N4 L-arginine were set as heavy isotope labels and 12C6 L-lysine and 12C6 14N4 L-arginine as light isotope labels.\n19 d k g h ARγ. 19a was covalently docked to the crystal structure of human γ ZU 190 using the GOLD suite (V5.3, CCDC). The default GOLD fitness function was used to determine the best binding configuration. The distance for hydrogen bonding was set to 3 Å.\nIAA competition of 23c, 24c and DEP h ARγ. γ\n(500 ng in 9 µL PBS) was treated with either 100 µM DEP, 23c, 24c or DMSO (1 µL of 10x stock in DMSO) for one hour. Samples were denatured with 6 M urea in 50 mM NH4HCO3, […]\nin the dark. Samples were diluted to 2 M urea with 50 mM NH4HCO3, and digested with trypsin […]"}
{"smiles": "C=C(C)C(=O)O[C@H]1CC2=C[C@@H](C/C(C)=C/[C@H]3OC(=O)C(=C)[C@H]13)OC2=O", "note": "[deoxyelephantopin]", "values": [{"measurement": "mode of action on PPARγ in cells", "setting": "20 µM, 24 h, compared with rosiglitazone and T0070907", "value": "antagonist of PPARγ"}, {"measurement": "Log2 20 µM DEP/DMSO", "setting": "protein ALDH3B1, 24 h", "value": -0.67}, {"measurement": "Log2 20 µM DEP/DMSO", "setting": "protein ARHGAP17, 24 h", "value": -0.97}, {"measurement": "Log2 20 µM DEP/DMSO", "setting": "protein ARMCX3, 24 h", "value": -0.92}, {"measurement": "Log2 20 µM DEP/DMSO", "setting": "protein COL4A3BP, 24 h", "value": -0.76}, {"measurement": "Log2 20 µM DEP/DMSO", "setting": "protein CROT, 24 h", "value": -0.68}, {"measurement": "Log2 20 µM DEP/DMSO", "setting": "protein CTBP2, 24 h", "value": 0.72}, {"measurement": "Log2 20 µM DEP/DMSO", "setting": "protein DDX21, 24 h", "value": 0.82}, {"measurement": "Log2 20 µM DEP/DMSO", "setting": "protein FNTA, 24 h", "value": -0.62}, {"measurement": "Log2 20 µM DEP/DMSO", "setting": "protein GID8, 24 h", "value": 0.68}, {"measurement": "Log2 20 µM DEP/DMSO", "setting": "protein GIPC2, 24 h", "value": -0.69}, {"measurement": "Log2 20 µM DEP/DMSO", "setting": "protein GIT2, 24 h", "value": -0.92}, {"measurement": "Log2 20 µM DEP/DMSO", "setting": "protein GSTA1, 24 h", "value": -0.81}, {"measurement": "Log2 20 µM DEP/DMSO", "setting": "protein GSTA2, 24 h", "value": -0.87}, {"measurement": "Log2 20 µM DEP/DMSO", "setting": "protein GSTM3, 24 h", "value": -0.84}, {"measurement": "Log2 20 µM DEP/DMSO", "setting": "protein HIGD1A, 24 h", "value": 0.69}, {"measurement": "Log2 20 µM DEP/DMSO", "setting": "protein IREB2, 24 h", "value": 0.65}, {"measurement": "Log2 20 µM DEP/DMSO", "setting": "protein ITGB4, 24 h", "value": 0.92}, {"measurement": "Log2 20 µM DEP/DMSO", "setting": "protein LDHD, 24 h", "value": -0.60}, {"measurement": "Log2 20 µM DEP/DMSO", "setting": "protein LDLR, 24 h", "value": 1.72}, {"measurement": "Log2 20 µM DEP/DMSO", "setting": "protein LIPA, 24 h", "value": -0.68}, {"measurement": "Log2 20 µM DEP/DMSO", "setting": "protein MARCH5, 24 h", "value": 1.85}, {"measurement": "Log2 20 µM DEP/DMSO", "setting": "protein MGMT, 24 h", "value": -0.81}, {"measurement": "Log2 20 µM DEP/DMSO", "setting": "protein MYO15B, 24 h", "value": -1.00}, {"measurement": "Log2 20 µM DEP/DMSO", "setting": "protein NOP9, 24 h", "value": 1.57}, {"measurement": "Log2 20 µM DEP/DMSO", "setting": "protein OAS1, 24 h", "value": 1.10}, {"measurement": "Log2 20 µM DEP/DMSO", "setting": "protein OGDHL, 24 h", "value": -0.98}, {"measurement": "Log2 20 µM DEP/DMSO", "setting": "protein PANK4, 24 h", "value": -0.81}, {"measurement": "Log2 20 µM DEP/DMSO", "setting": "protein PHPT1, 24 h", "value": -0.79}, {"measurement": "Log2 20 µM DEP/DMSO", "setting": "protein PSIP1, 24 h", "value": 0.76}, {"measurement": "Log2 20 µM DEP/DMSO", "setting": "protein RAB5B, 24 h", "value": 0.79}, {"measurement": "Log2 20 µM DEP/DMSO", "setting": "protein RBP4, 24 h", "value": -1.03}, {"measurement": "Log2 20 µM DEP/DMSO", "setting": "protein RRS1, 24 h", "value": 0.65}, {"measurement": "Log2 20 µM DEP/DMSO", "setting": "protein SAMHD1, 24 h", "value": -0.97}, {"measurement": "Log2 20 µM DEP/DMSO", "setting": "protein SCAMP3, 24 h", "value": 0.63}, {"measurement": "Log2 20 µM DEP/DMSO", "setting": "protein SETDB1, 24 h", "value": 0.81}, {"measurement": "Log2 20 µM DEP/DMSO", "setting": "protein SLC26A3, 24 h", "value": -0.98}, {"measurement": "Log2 20 µM DEP/DMSO", "setting": "protein SLC39A14, 24 h", "value": -0.74}, {"measurement": "Log2 20 µM DEP/DMSO", "setting": "protein STK4, 24 h", "value": -0.74}, {"measurement": "Log2 20 µM DEP/DMSO", "setting": "protein SURF6, 24 h", "value": 1.30}, {"measurement": "Log2 20 µM DEP/DMSO", "setting": "protein TGOLN2, 24 h", "value": 1.03}, {"measurement": "Log2 20 µM DEP/DMSO", "setting": "protein TPD52L1, 24 h", "value": -0.71}, {"measurement": "Log2 20 µM DEP/DMSO", "setting": "protein TTR, 24 h", "value": -0.97}, {"measurement": "Log2 20 µM DEP/DMSO", "setting": "protein VPS52, 24 h", "value": 0.63}]}
